Laboratory results reported in the NIST ThermoML archive (doi:10.1021/je800713c).

Legend:
[1] = mn = molality of the nth substance listed, in mol/kg; settings: 298.15 K, 101 kPa, Liquid
[2] = cn = amount concentration of the nth substance listed, in mol/dm3; settings: 298.15 K, 101 kPa, Liquid, Alternating current cell with electrodes

NCC(=O)NCC(=O)O [glycylglycine] + O
[1], Vibrating tube method
Settings | mass density [kg/m3]
m1 = 0.06033 | 1003.05
m1 = 0.08146 | 1004.21
m1 = 0.1018 | 1005.33
m1 = 0.1481 | 1007.84
m1 = 0.2504 | 1013.33
m1 = 0.2965 | 1015.78
m1 = 0.3421 | 1018.08

O [water] + CC(C)C[C@H](NC(=O)CN)C(=O)O
Settings | mass density [kg/m3]
[1], Vibrating tube method, m2 = 0 | 999.705

CC(C)C[C@H](NC(=O)CN)C(=O)O [glycyl-L-leucine] + O
[1], Vibrating tube method
Settings | mass density [kg/m3]
m1 = 0.01944 | 1000.64
m1 = 0.02958 | 1001.13
m1 = 0.0395 | 1001.61
m1 = 0.04928 | 1002.08
m1 = 0.057 | 1002.44
m1 = 0.07128 | 1003.12
m1 = 0.07696 | 1003.39
m1 = 0.09125 | 1004.06

CC(C)[C@H](NC(=O)CN)C(=O)O [glycyl-L-valine] + O
[1], Vibrating tube method
Settings | mass density [kg/m3]
m1 = 0.02261 | 1000.88
m1 = 0.03982 | 1001.76
m1 = 0.06223 | 1002.9
m1 = 0.07858 | 1003.73
m1 = 0.1017 | 1004.89
m1 = 0.1513 | 1007.38
m1 = 0.1799 | 1008.77

O [water] + CC(C)[C@H](NC(=O)CN)C(=O)O
Settings | mass density [kg/m3]
[1], Vibrating tube method, m2 = 0 | 999.705

CCCC(=O)[O-].[Na+] [sodium butyrate] + O
Settings | mass density [kg/m3] | molar conductivity [S·m2/mol]
[1], m1 = 0.5 | 1016.31 | –
[1], m1 = 1 | 1033.73 | –
[1], m1 = 1.5 | 1049.36 | –
[1], m1 = 2 | 1064.03 | –
[2], c1 = 0.0003234 | – | 0.00796
[2], c1 = 0.001116 | – | 0.00795
[2], c1 = 0.001273 | – | 0.00794
[2], c1 = 0.001488 | – | 0.00792
[2], c1 = 0.00188 | – | 0.00788
[2], c1 = 0.002076 | – | 0.00787
[2], c1 = 0.00243 | – | 0.00784
[2], c1 = 0.003167 | – | 0.00766
[2], c1 = 0.006298 | – | 0.00753
[2], c1 = 0.008849 | – | 0.00744
[2], c1 = 0.01124 | – | 0.00737
[2], c1 = 0.01353 | – | 0.00732
[2], c1 = 0.0155 | – | 0.00727
[2], c1 = 0.01721 | – | 0.00724
[2], c1 = 0.01916 | – | 0.0072
[2], c1 = 0.02091 | – | 0.00717
[2], c1 = 0.02284 | – | 0.00714
[2], c1 = 0.02481 | – | 0.0071
[2], c1 = 0.02647 | – | 0.00707

O [water] + NCC(=O)NCC(=O)O
Settings | mass density [kg/m3]
[1], Vibrating tube method, m2 = 0 | 999.705
